Strand notation (5' to 3'): a small letter for the sugar, then the base; units joined by * are phosphorothioate-linked, units joined directly phosphodiester-linked; [ ] holds rarer units or linkages, { } end groups; capitals alone tell only the bases. e = 2'-O-(2-methoxyethyl) (MOE); [5mC] = 5-methylcytosine; d = 2'-deoxy (DNA)

For one data set, the system named is human microsomal triglyceride transfer protein mRNA. Description: Antisense inhibition of human microsomal triglyceride transfer protein mRNA levels, quantitative real-time PCR. The conditions noted are these: averages from two experiments. For orientation: In qPCR the cycle at which signal appears reflects the starting amount.
Consider “144408 (eT*e[5mC]*eA*eA*e[5mC]*dT*dG*d[5mC]*dA*dT*d[5mC]*d[5mC]*dA*dG*dT*eG*e[5mC]*e[5mC]*e[5mC]*eA; antisense) [compound 144408]”, for which the “% INHIB (inhibition of human microsomal triglyceride transfer protein mRNA levels)” value is reported as 30%. On the same count and under the same terms, the figure for “144409 (eT*e[5mC]*eA*eT*eA*dT*dT*dG*dA*d[5mC]*d[5mC]*dA*dG*d[5mC]*dA*eA*eT*e[5mC]*e[5mC]*eT; antisense) [compound 144409]” is 31%. Still for that read-out and setting: the figure for “144410 (e[5mC]*e[5mC]*eA*eG*eT*dT*dG*dT*dG*dT*dG*dA*d[5mC]*d[5mC]*dT*eT*eT*eA*eA*e[5mC]; antisense) [compound 144410]” is 38%; for “144411 (eA*e[5mC]*eG*eT*eG*dA*dG*d[5mC]*dT*dT*dG*dT*dA*d[5mC]*dA*eG*e[5mC]*e[5mC]*eG*eG; antisense) [compound 144411]” it is 28%; for “144412 (eG*e[5mC]*eG*eG*eT*dA*dG*d[5mC]*d[5mC]*d[5mC]*dA*d[5mC]*dG*d[5mC]*dT*eG*eT*e[5mC]*eT*eT; antisense) [compound 144412]” it is 34%. On the same count and under the same terms, the figure for “144413 (eG*eA*eT*eT*e[5mC]*d[5mC]*dT*d[5mC]*d[5mC]*dA*dT*dA*dG*dT*dA*eA*eG*eG*e[5mC]*e[5mC]; antisense) [compound 144413]” is 91%; for “144414 (eG*eA*eT*eT*eA*dG*dA*dT*dG*dA*dA*dG*dG*dA*dG*e[5mC]*eG*eT*eA*eG; antisense) [compound 144414]” it is 0%.

On to “144415 (eG*eT*eG*eG*eT*dT*d[5mC]*d[5mC]*dA*dG*dA*dG*d[5mC]*dT*dT*eA*eA*e[5mC]*eT*eG; antisense) [compound 144415]”, for which the “% INHIB (inhibition of human microsomal triglyceride transfer protein mRNA levels)” value was determined as 0%.

With “144416 (eA*eG*eG*eT*eG*dG*dT*dG*dA*d[5mC]*dA*dG*dA*dT*dG*eT*eA*eG*e[5mC]*eT; antisense) [compound 144416]”, the “% INHIB (inhibition of human microsomal triglyceride transfer protein mRNA levels)” value amounted to 27%. On to “144417 (eG*e[5mC]*eT*eG*e[5mC]*dA*dG*d[5mC]*d[5mC]*dT*dG*d[5mC]*dT*dT*dT*e[5mC]*e[5mC]*eA*eG*eA; antisense) [compound 144417]”, for which the “% INHIB (inhibition of human microsomal triglyceride transfer protein mRNA levels)” value is on record as 9%. On to “144418 (eA*e[5mC]*eA*eG*eT*dG*dG*d[5mC]*dT*d[5mC]*dT*dG*dG*dA*dA*eG*eA*e[5mC]*e[5mC]*eT; antisense) [compound 144418]”, for which the “% INHIB (inhibition of human microsomal triglyceride transfer protein mRNA levels)” value is 0%. Still for that read-out and setting: the figure for “144419 (eT*eG*eG*eT*eG*dG*dA*d[5mC]*d[5mC]*dG*d[5mC]*d[5mC]*dA*dG*dA*eG*e[5mC]*eT*e[5mC]*e[5mC]; antisense) [compound 144419]” is 0%; for “144420 (eG*eA*eG*eG*eT*dG*dA*d[5mC]*dA*dG*d[5mC]*dA*dT*d[5mC]*d[5mC]*eA*e[5mC]*e[5mC]*eA*eG; antisense) [compound 144420]” it is 21%; for “144421 (eA*eT*eG*eG*e[5mC]*dT*dT*d[5mC]*dT*dA*dA*dT*dG*dA*dG*eT*e[5mC]*eT*eG*eA; antisense) [compound 144421]” it is 13%. Same read-out and setting: the figure for “144422 (e[5mC]*e[5mC]*eT*eG*eG*dA*dG*dG*dA*dT*dA*dA*dT*dG*d[5mC]*eT*eG*e[5mC]*eT*eG; antisense) [compound 144422]” is 37%. On the same count and under the same terms, the figure for “144423 (eA*eG*eT*eG*eT*d[5mC]*d[5mC]*d[5mC]*dA*dG*dT*dG*dA*dT*dG*eA*eT*e[5mC]*eA*eT; antisense) [compound 144423]” is 41%; for “144424 (eA*eG*e[5mC]*eA*eG*dA*dT*dA*d[5mC]*dA*dT*d[5mC]*d[5mC]*dT*dG*eG*eT*eG*eT*e[5mC]; antisense) [compound 144424]” it is 23%.

Consider “144425 (e[5mC]*e[5mC]*e[5mC]*eT*eT*d[5mC]*dT*d[5mC]*d[5mC]*dT*dG*d[5mC]*dT*dT*d[5mC]*eT*eG*e[5mC]*eA*eT; antisense) [compound 144425]”, for which the “% INHIB (inhibition of human microsomal triglyceride transfer protein mRNA levels)” value is on record as 22%.

The next data set deals with mouse microsomal triglyceride transfer protein mRNA. Description: Antisense inhibition of mouse microsomal triglyceride transfer protein mRNA levels in primary hepatocytes, quantitative real-time PCR. It is filed as cell-based. Also on record: concentration or dose not given beside the values. Particulars: averages from two experiments. As for the experimental part:
Primary mouse hepatocytes were prepared from CD-1 mice purchased from Charles River Labs (Wilmington, Mass.) and were routinely cultured in Hepatocyte Attachment Media (Gibco) supplemented with 10% Fetal Bovine Serum (Gibco/Life Technologies, Gaithersburg, Md.), 250 nM dexamethasone (Sigma), and 10 nM bovine insulin (Sigma). Cells were seeded into 96-well plates (Falcon-Primaria #3872) at a density of 10000 cells/well for use in RT-PCR analysis.
Cells were harvested 16-24 hours after oligonucleotide treatment.
All cytidine residues are 5-methylcytidines. […] Data are averages from two experiments. If present, “N.D.” indicates “no data”.
Regarding “CCCTTTCACCACGCTGACAG (all phosphorothioate, sugars by position and methylation of C not given here; 2'-MOE wings and deoxy gap) [ISIS 144500, 2′-MOE gapmer phosphorothioate antisense oligonucleotide to mouse MTP]”, the “% INHIB (inhibition of mouse microsomal triglyceride transfer protein mRNA levels)” value is reported as “at least 30%”. “CCTGGAGTATGATACTGCTG (all phosphorothioate, sugars by position and methylation of C not given here; 2'-MOE wings and deoxy gap) [ISIS 144484, 2′-MOE gapmer phosphorothioate antisense oligonucleotide to mouse MTP]”: the “% INHIB (inhibition of mouse microsomal triglyceride transfer protein mRNA levels)” value is on record as “at least 30%”. Still for that read-out and setting: the entry for “CGCTGACAGGGTCGCCGGAT (all phosphorothioate, sugars by position and methylation of C not given here; 2'-MOE wings and deoxy gap) [ISIS 144499, 2′-MOE gapmer phosphorothioate antisense oligonucleotide to mouse MTP]” is “at least 30%”; for “CTCGCGATACCACAGACTGA (all phosphorothioate, sugars by position and methylation of C not given here; 2'-MOE wings and deoxy gap) [ISIS 144502, 2′-MOE gapmer phosphorothioate antisense oligonucleotide to mouse MTP]” it is “at least 30%”. Regarding “CTCTGATGTCGTTGCTTGCA (all phosphorothioate, sugars by position and methylation of C not given here; 2'-MOE wings and deoxy gap) [ISIS 144485, 2′-MOE gapmer phosphorothioate antisense oligonucleotide to mouse MTP]”, the “% INHIB (inhibition of mouse microsomal triglyceride transfer protein mRNA levels)” value was “at least 30%”.

Take “CTGCAATTAAGCCTTCCAGC (all phosphorothioate, sugars by position and methylation of C not given here; 2'-MOE wings and deoxy gap) [ISIS 144496, 2′-MOE gapmer phosphorothioate antisense oligonucleotide to mouse MTP]”: the “% INHIB (inhibition of mouse microsomal triglyceride transfer protein mRNA levels)” value is reported as “at least 30%”. Take “GACCACCCTGGATCTCCATA (all phosphorothioate, sugars by position and methylation of C not given here; 2'-MOE wings and deoxy gap) [ISIS 144501, 2′-MOE gapmer phosphorothioate antisense oligonucleotide to mouse MTP]”: the “% INHIB (inhibition of mouse microsomal triglyceride transfer protein mRNA levels)” value was “at least 30%”. On the same count and under the same terms, the entry for “GCTCGAGGACCTGTCCCACA (all phosphorothioate, sugars by position and methylation of C not given here; 2'-MOE wings and deoxy gap) [ISIS 144480, 2′-MOE gapmer phosphorothioate antisense oligonucleotide to mouse MTP]” is “at least 30%”. Same read-out and setting: the entry for “GTGGCTGACGGGCCCTTCTC (all phosphorothioate, sugars by position and methylation of C not given here; 2'-MOE wings and deoxy gap) [ISIS 144489, 2′-MOE gapmer phosphorothioate antisense oligonucleotide to mouse MTP]” is “at least 30%”.

Regarding “GTTATCACCACAGCCACCCG (all phosphorothioate, sugars by position and methylation of C not given here; 2'-MOE wings and deoxy gap) [ISIS 144503, 2′-MOE gapmer phosphorothioate antisense oligonucleotide to mouse MTP]”, the “% INHIB (inhibition of mouse microsomal triglyceride transfer protein mRNA levels)” value is “at least 30%”. The same measure, in the same setting: the entry for “TGACATGCCAGCATAAGAGT (all phosphorothioate, sugars by position and methylation of C not given here; 2'-MOE wings and deoxy gap) [ISIS 144498, 2′-MOE gapmer phosphorothioate antisense oligonucleotide to mouse MTP]” is “at least 30%”.

As to “TGCACAACGGTGAGCATGTA (all phosphorothioate, sugars by position and methylation of C not given here; 2'-MOE wings and deoxy gap) [ISIS 144492, 2′-MOE gapmer phosphorothioate antisense oligonucleotide to mouse MTP]”, the “% INHIB (inhibition of mouse microsomal triglyceride transfer protein mRNA levels)” value was “at least 30%”.

For “TTCCAGTGCTCCGCCAGAGA (all phosphorothioate, sugars by position and methylation of C not given here; 2'-MOE wings and deoxy gap) [ISIS 144481, 2′-MOE gapmer phosphorothioate antisense oligonucleotide to mouse MTP]”, the “% INHIB (inhibition of mouse microsomal triglyceride transfer protein mRNA levels)” value was “at least 30%”.

The record behind these values is patent US20050181376A1, “Antisense modulation of microsomal triglyceride transfer protein expression” (ISIS Pharmaceuticals, Inc., priority 2001, published 2005).
